Reference: patent US20110021565A1, “PIPERIDINE DERIVATIVES AS NK3 ANTAGONISTS” (priority 2007, published 2011)
Like-named read-outs stand apart in the source and are kept apart here.

Target: T1, recombinant human NK3 receptor (Homo sapiens, UniProt P29371)
T1 construct: expressed in transfected cells; host or cells: HEK293 cells, transient expression; membrane preparation
T1 sequence (P29371 1-465): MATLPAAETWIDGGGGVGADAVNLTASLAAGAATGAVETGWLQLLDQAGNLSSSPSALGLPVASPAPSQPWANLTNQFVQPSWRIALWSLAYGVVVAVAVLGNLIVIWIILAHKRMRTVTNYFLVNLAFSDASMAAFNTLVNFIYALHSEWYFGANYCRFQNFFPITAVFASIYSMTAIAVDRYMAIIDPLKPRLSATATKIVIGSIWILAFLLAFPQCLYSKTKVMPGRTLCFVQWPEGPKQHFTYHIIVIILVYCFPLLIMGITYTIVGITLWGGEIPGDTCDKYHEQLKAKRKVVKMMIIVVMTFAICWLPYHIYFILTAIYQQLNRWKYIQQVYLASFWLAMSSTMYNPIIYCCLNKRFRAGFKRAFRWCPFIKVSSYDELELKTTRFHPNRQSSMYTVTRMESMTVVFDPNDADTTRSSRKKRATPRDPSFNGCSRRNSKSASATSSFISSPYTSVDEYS
Assay: [3H]SR142801 competition binding assay
Procedure, shortened: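 Ki derived by Cheng-Prusoff from Hill-fitted IC50 curves, duplicates, 10 μM SB222200 defining nonspecific binding. Radioligand used at KD concentration against compound at 0.0003-10 μM; transiently transfected HEK293 membranes, 5 μg/well, 75 min room temperature, Tris-HCl/MnCl2/phosphoramidon/BSA pH 7.4. Filter-bound counts read by scintillation.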

[1] = [3H]SR142801, membranes of HEK293 cells transiently expressing recombinant human NK3 receptor, read-out: hNK3 Ki
[2] = representative compounds, [3H]SR142801, HEK293 membranes, human NK3 receptor, read-out: Ki NK3 h

| SMILES | Ki [1] | Ki [2] |
| --- | --- | --- |
| CC(=O)N(C)C1CCN(CCC(C)(C(=O)N(C)Cc2ccc(Cl)cc2)c2ccc(Cl)c(Cl)c2)CC1 (stereo not drawn) [Example 102, 4-[4-(Acetyl-methyl-amino)-piperidin-1-yl]-N-(4-chloro-benzyl)-2-(3,4-dichloro-phenyl)-2,N-dimethyl-butyramide] | 5.1 nM | 5.1 nM |
| CC(=O)N(C)C1CCN(CCC(C)(C(=O)N(C)Cc2cccc(Cl)c2)c2ccc(Cl)c(Cl)c2)CC1 (stereo not drawn) [Example 105, 4-[4-(Acetyl-methyl-amino)-piperidin-1-yl]-N-(3-chloro-benzyl)-2-(3,4-dichloro-phenyl)-2,N-dimethyl-butyramide] | 8.7 nM | 8.7 nM |
| CC(=O)N(C)C1CCN(CCC(C)(C(=O)N(C)Cc2ccc(C(F)(F)F)cc2)c2ccc(Cl)c(Cl)c2)CC1 (stereo not drawn) [Example 106, 4-[4-(Acetyl-methyl-amino)-piperidin-1-yl]-2-(3,4-dichloro-phenyl)-2,N-dimethyl-N-(4-trifluoromethyl-benzyl)-butyramide] | 5.1 nM | 5.1 nM |
| CC(=O)N(C)C1CCN(CCC(C)(C(=O)N(C)Cc2ccccc2Cl)c2ccc(Cl)c(Cl)c2)CC1 (stereo not drawn) [Example 108, 4-[4-(Acetyl-methyl-amino)-piperidin-1-yl]-N-(2-chloro-benzyl)-2-(3,4-dichloro-phenyl)-2,N-dimethyl-butyramide] | 12 nM |  |
| CN(Cc1ccc(Cl)cc1)C(=O)C(CCN1CCC(N2CCCC2=O)CC1)c1ccc(Cl)cc1Cl (stereo not drawn) [Example 112, N-(4-Chloro-benzyl)-2-(2,4-dichloro-phenyl)-N-methyl-4-[4-(2-oxo-pyrrolidin-1-yl)-piperidin-1-yl]-butyramide] | 128 nM |  |
| CN(Cc1ccc(Cl)cc1)C(=O)C(CCN1CCC(N2CCCC2=O)CC1)c1ccccc1 (stereo not drawn) [Example 114, N-(4-Chloro-benzyl)-N-methyl-4-[4-(2-oxo-pyrrolidin-1-yl)-piperidin-1-yl]-2-phenyl-butyramide] | 560 nM |  |
| CN(Cc1ccc(Cl)cc1)C(=O)C(CCN1CCC(N2CCCC2=O)CC1)c1ccc(F)c(F)c1 (stereo not drawn) [Example 116, N-(4-Chloro-benzyl)-2-(3,4-difluoro-phenyl)-N-methyl-4-[4-(2-oxo-pyrrolidin-1-yl)-piperidin-1-yl]-butyramide] | 198 nM |  |
| CC(NC(=O)C(C)(CCN1CCC(N2CCCC2=O)CC1)c1ccc(Cl)c(Cl)c1)c1ccc(F)c(C(F)(F)F)c1 (stereo not drawn) [Example 125, 2-(3,4-Dichloro-phenyl)-N-[1-(4-fluoro-3-trifluoromethyl-phenyl)-ethyl]-2-methyl-4-[4-(2-oxo-pyrrolidin-1-yl)-piperidin-1-yl]-butyramide] | 25.4 nM |  |
| CC(c1ccc(F)c(C(F)(F)F)c1)N(C)C(=O)C(C)(CCN1CCC(N2CCCC2=O)CC1)c1ccc(Cl)c(Cl)c1 (stereo not drawn) [Example 126, 2-(3,4-Dichloro-phenyl)-N-[1-(4-fluoro-3-trifluoromethyl-phenyl)-ethyl]-2,N-dimethyl-4-[4-(2-oxo-pyrrolidin-1-yl)-piperidin-1-yl]-butyramide] | 30.3 nM |  |
| CC(=O)N(C)C1CCN(CCC(C)(C(=O)N[C@H](CO)c2ccccc2)c2ccc(Cl)c(Cl)c2)CC1 (stereo partly drawn) [Example 133, 4-[4-(Acetyl-methyl-amino)-piperidin-1-yl]-2-(3,4-dichloro-phenyl)-N-((S)-2-hydroxy-1-phenyl-ethyl)-2-methyl-butyramide] | 526 nM |  |
| CC(=O)N(C)C1CCN(CCC(C)(C(=O)N[C@@H](CO)c2ccccc2)c2ccc(Cl)c(Cl)c2)CC1 (stereo partly drawn) [Example 134, 4-[4-(Acetyl-methyl-amino)-piperidin-1-yl]-2-(3,4-dichloro-phenyl)-N-((R)-2-hydroxy-1-phenyl-ethyl)-2-methyl-butyramide] | 35.6 nM |  |
| CC(=O)N(C)C1CCN(CCC(C)(C(=O)NC(c2ccc(F)cc2)C(F)(F)F)c2ccc(Cl)c(Cl)c2)CC1 (stereo not drawn) [Example 135, 4-[4-(Acetyl-methyl-amino)-piperidin-1-yl]-2-(3,4-dichloro-phenyl)-2-methyl-N-[2,2,2-trifluoro-1-(4-fluoro-phenyl)-ethyl]-butyramide] | 12.6 nM |  |
| CC(=O)N(C)C1CCN(CCC(C)(C(=O)N[C@@H](CO)c2ccc(Cl)cc2)c2ccc(Cl)c(Cl)c2)CC1 (stereo partly drawn) [Example 136, 4-[4-(Acetyl-methyl-amino)-piperidin-1-yl]-N-[1-(4-chloro-phenyl)-2-hydroxy-ethyl]-2-(3,4-dichloro-phenyl)-2-methyl-butyramide (diastereosisomer 1)] | 9.6 nM | 9.6 nM |
| CC(=O)N(C)C1CCN(CCC(C)(C(=O)N[C@H](CO)c2ccc(Cl)cc2)c2ccc(Cl)c(Cl)c2)CC1 (stereo partly drawn) [Example 137, 4-[4-(Acetyl-methyl-amino)-piperidin-1-yl]-N-[1-(4-chloro-phenyl)-2-hydroxy-ethyl]-2-(3,4-dichloro-phenyl)-2-methyl-butyramide (diastereosisomer 2)] | 56 nM |  |

Next, values leading:

| Ki [1] | Ki [2] | SMILES |
| --- | --- | --- |
| 2.2 nM | 2.2 nM | CC(=O)N(C)C1CCN(CCC(C)(C(=O)N(C)Cc2ccc(Cl)c(C(F)(F)F)c2)c2ccc(Cl)c(Cl)c2)CC1 (stereo not drawn) [Example 103, 4-[4-(Acetyl-methyl-amino)-piperidin-1-yl]-N-(4-chloro-3-trifluoromethyl-benzyl)-2-(3,4-dichloro-phenyl)-2,N-dimethyl-butyramide] |
| 2.3 nM | 2.3 nM | CC(=O)N(C)C1CCN(CCC(C)(C(=O)N(C)Cc2ccc(F)c(C(F)(F)F)c2)c2ccc(Cl)c(Cl)c2)CC1 (stereo not drawn) [Example 104, 4-[4-(Acetyl-methyl-amino)-piperidin-1-yl]-2-(3,4-dichloro-phenyl)-N-(4-fluoro-3-trifluoromethyl-benzyl)-2,N-dimethyl-butyramide] |
| 10.6 nM |  | CC(=O)N(C)C1CCN(CCC(C)(C(=O)N(C)Cc2ccc(C)cc2)c2ccc(Cl)c(Cl)c2)CC1 (stereo not drawn) [Example 107, 4-[4-(Acetyl-methyl-amino)-piperidin-1-yl]-2-(3,4-dichloro-phenyl)-2,N-dimethyl-N-(4-methyl-benzyl)-butyramide] |
| 408 nM |  | CN(Cc1ccc(Cl)cc1)C(=O)C(CCN1CCC(N2CCCC2=O)CC1)c1ccc(F)cc1 (stereo not drawn) [Example 111, N-(4-Chloro-benzyl)-2-(4-fluoro-phenyl)-N-methyl-4-[4-(2-oxo-pyrrolidin-1-yl)-piperidin-1-yl]-butyramide] |
| 775 nM |  | COc1ccc(C(CCN2CCC(N3CCCC3=O)CC2)C(=O)N(C)Cc2ccc(Cl)cc2)cc1 (stereo not drawn) [Example 113, N-(4-Chloro-benzyl)-2-(4-methoxy-phenyl)-N-methyl-4-[4-(2-oxo-pyrrolidin-1-yl)-piperidin-1-yl]-butyramide] |
| 8.1 nM | 8.1 nM | CN(Cc1ccc(Cl)cc1)C(=O)C(CCN1CCC(N2CCCC2=O)CC1)c1ccc(Cl)c(Cl)c1 (stereo not drawn) [Example 115, N-(4-Chloro-benzyl)-2-(3,4-dichloro-phenyl)-N-methyl-4-[4-(2-oxo-pyrrolidin-1-yl)-piperidin-1-yl]-butyramide] |
| 387 nM |  | CN(Cc1ccc(Cl)cc1)C(=O)C(CCN1CCC(N2CCCC2=O)CC1)c1ccc(Cl)nc1 (stereo not drawn) [Example 117, N-(4-Chloro-benzyl)-2-(6-chloro-pyridin-3-yl)-N-methyl-4-[4-(2-oxo-pyrrolidin-1-yl)-piperidin-1-yl]-butyramide] |
| 5.2 nM | 5.2 nM | CC[C@H](NC(=O)C(C)(CCN1CCC(N2CCCC2=O)CC1)c1ccc(Cl)c(Cl)c1)c1ccccc1 (stereo partly drawn) [Example 127, 2-(3,4-Dichloro-phenyl)-2-methyl-4-[4-(2-oxo-pyrrolidin-1-yl)-piperidin-1-yl]-N-((S)-1-phenyl-propyl)-butyramide] |
| 90.2 nM |  | CC[C@@H](NC(=O)C(C)(CCN1CCC(N2CCCC2=O)CC1)c1ccc(Cl)c(Cl)c1)c1ccccc1 (stereo partly drawn) [Example 128, 2-(3,4-Dichloro-phenyl)-2-methyl-4-[4-(2-oxo-pyrrolidin-1-yl)-piperidin-1-yl]-N-((R)-1-phenyl-propyl)-butyramide] |
| 3.4 nM | 3.4 nM | CC(CCN1CCC(N2CCCC2=O)CC1)(C(=O)NCc1ccc(F)c(C(F)(F)F)c1)c1ccc(Cl)c(Cl)c1 (stereo not drawn) [Example 131, 2-(3,4-Dichloro-phenyl)-N-(4-fluoro-3-trifluoromethyl-benzyl)-2-methyl-4-[4-(2-oxo-pyrrolidin-1-yl)-piperidin-1-yl]-butyramide] |
| 46.2 nM |  | CC(=O)N(C)C1CCN(CCC(C)(C(=O)NC(C)c2ccc(F)c(C(F)(F)F)c2)c2ccc(Cl)c(Cl)c2)CC1 (stereo not drawn) [Example 132, 4-[4-(Acetyl-methyl-amino)-piperidin-1-yl]-2-(3,4-dichloro-phenyl)-N-[1-(4-fluoro-3-trifluoromethyl-phenyl)-ethyl]-2-methyl-butyramide] |
| 3.8 nM | 3.8 nM | COCCN(C(C)=O)C1CCN(CCC(C)(C(=O)N[C@@H](CO)c2ccc(Cl)c(Cl)c2)c2ccc(Cl)c(Cl)c2)CC1 (stereo partly drawn) [Example 148, 4-{4-[Acetyl-(2-methoxy-ethyl)-amino]-piperidin-1-yl}-2-(3,4-dichloro-phenyl)-N-[1-(3,4-dichloro-phenyl)-2-hydroxy-ethyl]-2-methyl-butyramide (diastreoisomer 1)] |
